Results published in the OligoGym collection.
After the bases stand the sugars from the 5' end (letter, count) and the backbone: PS all phosphorothioate, else s phosphorothioate and o phosphodiester by linkage. Methylation of C is not given here. e = 2'-O-(2-methoxyethyl) (MOE); k = constrained ethyl (cEt); d = 2'-deoxy (DNA); m = 2'-O-methyl

target: HSD17B13; details: ASO, HepaRG, 0.02 µM

Sequence | target mRNA inhibition [%]
AAACATCTCTGGGACC (sugars k3 d10 k3, PS) | 0

same assay, conditions: ASO, HepaRG, 0.078 µM

Sequence | target mRNA inhibition [%]
AAACATCTCTGGGACC (sugars k3 d10 k3, PS) | 0

same assay, conditions: ASO, HepaRG, 0.313 µM

Sequence | target mRNA inhibition [%]
AAACATCTCTGGGACC (sugars k3 d10 k3, PS) | 33

same assay, conditions: ASO, HepaRG, 1 µM

Sequence | target mRNA inhibition [%]
AAAAATTGGCCTCCTG (sugars k3 d10 k3, PS) | 41
AAAACATTGCTCTTCG (sugars k3 d10 k3, PS) | 59
AAAACCGTCAAATAGG (sugars k3 d10 k3, PS) | 28
AAAACTTCACCAACGA (sugars k3 d10 k3, PS) | 29
AAAATAGAGTCGGTCA (sugars kkdddddddddkekek, PS) | 53
AAAATCGCTGCTTAGT (sugars k3 d10 k3, PS) | 35
AAAATTATGCCTTGTG (sugars k3 d10 k3, PS) | 50
AAACAAGAGGATAGTC (sugars kkkdddddddkdkkke, PS) | 45
AAACCTTCATGCTAGT (sugars k3 d10 k3, PS) | 27
AAACCTTGAATGAGTG (sugars k3 d10 k3, PS) | 37
AAAGCCCTATTCTTCG (sugars k3 d10 k3, PS) | 65
AAAGTTAGTTGGGCGA (sugars k3 d10 k3, PS) | 26
AAATCTTGTGTAACTG (sugars k3 d10 k3, PS) | 41
AAATTATTGCCTGAAC (sugars k3 d10 k3, PS) | 32
AAATTCATAAGTAGTC (sugars k3 d10 k3, PS) | 39
AAATTGGCCTCCTGGG (sugars k3 d10 k3, PS) | 44
AAATTGGTTTCGAATC (sugars k3 d10 k3, PS) | 32
AAATTTGCTGGAACTG (sugars k3 d10 k3, PS) | 15
AAATTTGTGAACCTGC (sugars k3 d10 k3, PS) | 26
AACAATCAGGAGTTGC (sugars k3 d10 k3, PS) | 31
AACACTAATCTCAGTA (sugars k3 d10 k3, PS) | 15

Sequence | target mRNA inhibition [%]
AACAGTCTTAAACCTT (sugars k3 d1 m1 d8 k3, PS) | 75
AACATCTCTGGGACCA (sugars k3 d9 k3 e1, PS) | 61
AACCTATGTGTGCACC (sugars k3 d10 k3, PS) | 73
AACCTTTGTTGCCTGG (sugars k3 d10 k3, PS) | 36
AACGACTCCAAGTAGG (sugars k3 d10 k3, PS) | 27
AACTACAAGAGGTTAT (sugars k3 d10 k3, PS) | 57
AACTACATGACCTGGG (sugars k3 d10 k3, PS) | 27
AACTAGTGGTAATGGT (sugars k3 d10 k3, PS) | 32
AACTCTAAATACCCTT (sugars k3 d10 k3, PS) | 28
AACTCTATTGATTGGC (sugars k3 d10 k3, PS) | 72
AACTGAAGGTCTGAGC (sugars k3 d10 k3, PS) | 55
AACTTCACCAACGACT (sugars k3 d10 k3, PS) | 0
AACTTCATAGTGGACT (sugars kkdddddddddkekek, PS) | 68
AAGAAATTTGTGAACC (sugars k3 d10 k3, PS) | 21
AAGACATTCTAGCCTG (sugars k3 d9 k3 e1, PS) | 40
AAGATACCCAGGTTGC (sugars k3 d9 k3 e1, PS) | 69
AAGATACCCAGGTTGC (sugars kkdddddddddkekek, PS) | 59
AAGATTAGTCTTGATG (sugars k3 d10 k3, PS) | 25
AAGCTTTGCAGCATTG (sugars k3 d10 k3, PS) | 59
AAGGAGTAGTGGAGCC (sugars k3 d10 k3, PS) | 38

same assay, conditions: ASO, HepaRG, 1.25 µM

Sequence | target mRNA inhibition [%]
AAACATCTCTGGGACC (sugars k3 d10 k3, PS) | 56

same assay, conditions: ASO, HepaRG, 5 µM

Sequence | target mRNA inhibition [%]
AAACATCTCTGGGACC (sugars k3 d10 k3, PS) | 78
